# Laboratory results published in PubChem BioAssay (NCI).
# Values joined by “and” are separate entries in the source; they are usually repeats but may differ in a detail not shown here. Equal entries are not always repeated.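 Protocol summary: plate cells (96-well), add compound at 5 concentrations, incubate 48 h, interpolate endpoints linearly. At the GI50, growth is halved. TGI is the concentration that stops growth completely.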
# Assays:
# Experiment in all cases: NCI-60 cell line screen, 48 h
# BT-549 breast = system: BT-549 breast
# COLO 205 colon = system: COLO 205 colon
# HCT-116 colon = system: HCT-116 colon
# LOX IMVI melanoma = system: LOX IMVI melanoma
# SF-268 CNS = system: SF-268 CNS
# SN12C renal = system: SN12C renal
# UACC-257 melanoma = system: UACC-257 melanoma
# SK-MEL-5 melanoma = system: SK-MEL-5 melanoma
Compound,GI50 (BT-549 breast),TGI (BT-549 breast),GI50 (COLO 205 colon),GI50 (HCT-116 colon),TGI (HCT-116 colon),GI50 (LOX IMVI melanoma),TGI (LOX IMVI melanoma),GI50 (SF-268 CNS),TGI (SF-268 CNS),GI50 (SN12C renal),GI50 (UACC-257 melanoma),TGI (COLO 205 colon),GI50 (SK-MEL-5 melanoma),TGI (SK-MEL-5 melanoma),TGI (SN12C renal),TGI (UACC-257 melanoma)
CC(=O)OC1OC([C@H]2c3cccc(O)c3C(=O)c3c(O)cc(C)cc32)C(O)C(O)C1O (stereo partly drawn),0.356 µM,1.03 µM,0.0421 µM,< 0.01 µM,1.18 µM,< 0.0146 µM,< 0.0251 µM,0.0788 µM,1.74 µM,< 0.0259 µM,< 0.0139 µM,,,,,
Cc1cn(-c2cc(NC(=O)c3cccc(C#Cc4cccc5[nH]nc(N)c45)c3)cc(C(F)(F)F)c2)cn1,5.21 µM,80.4 µM,2.45 µM,2.62 µM,18.8 µM,2.87 µM,> 100 µM,4.81 µM,> 100 µM,7.6 µM,6.59 µM,15.8 µM,4.66 µM,21.7 µM,> 100 µM,78.3 µM
CCN1C(=O)/C(=C/c2c(Cl)[nH]c3cc(C)c(OC)cc23)c2ccccc21,0.5 µM,6.31 µM,2.77 µM,3.78 µM,16.8 µM,9.72 µM,> 100 µM,6.18 µM,> 100 µM,5.51 µM,6.47 µM,15.4 µM,2.99 µM,8.19 µM,83.1 µM,> 100 µM
C=C(C)C1CC2(C)C(C)CC(O)CC2C(OC(=O)C=C(C)C)C1O (stereo not drawn),,> 100 µM,,,> 100 µM,,> 100 µM,,> 100 µM,,,32.4 µM,,49.2 µM,> 100 µM,> 100 µM
O=c1[nH]c2ccccc2cc1-c1nc2ccc(Cl)cc2[nH]1,2.99 µM,> 100 µM,3.25 µM,2.66 µM,21.4 µM,4.43 µM,> 100 µM,6.09 µM,> 100 µM,3.17 µM,13.9 µM,> 100 µM,3.4 µM,32.5 µM,> 100 µM,> 100 µM
Cc1cc(Cl)ccc1OCC(=O)Nc1nc2c(Cl)cccc2s1,> 100 µM,> 100 µM,> 100 µM,,,9.82 µM,45.6 µM,28.8 µM,> 100 µM,39.2 µM,> 100 µM,> 100 µM,> 100 µM,> 100 µM,> 100 µM,> 100 µM
C=CC(=O)N1CCC(Oc2cc3c(Nc4ccc(Cl)c(Cl)c4F)ncnc3cc2OC)CC1,1.9 µM and 2.23 µM,13.4 µM and > 10 µM,4.26 µM and 3.52 µM,5.28 µM and 3.72 µM,18.9 µM and > 10 µM,1.55 µM and 1.2 µM,5.73 µM and 2.84 µM,0.743 µM and 0.466 µM,19.4 µM and > 7.14 µM,2.88 µM and 1.79 µM,11.5 µM and 6.67 µM,17.4 µM and > 10 µM,7.18 µM and 3.47 µM,19.3 µM and > 9 µM,25.2 µM and > 10 µM,31.7 µM and > 10 µM
Nc1n[nH]c2cccc(C#Cc3cccc(NC(=O)c4cccc(C(F)(F)F)c4)c3)c12,3.34 µM,11.1 µM,3.65 µM,0.855 µM,4.61 µM,1.53 µM,3.41 µM,3.82 µM,16.3 µM,4.09 µM,4.3 µM,15.1 µM,4.13 µM,14.8 µM,17.3 µM,15.8 µM
